# In ChEMBL document CHEMBL1150275, “Pharmacological and pharmacokinetic characterization of 2-piperazine-alpha-isopropyl benzylamine derivatives as melanocortin-4 receptor antagonists” (Bioorg Med Chem, 2008):
# How the values were obtained:
# [1] = physchem; conditions: buffer, pH 7.4
# [2] = test system: Caco-2; experiment: Apparent permeability across human Caco-2 cells; assay type: ADME, cell-based
# [3] = Drug level in mouse brain at 5 mg/kg, iv after 1 hr; assay type: ADME, organism-based; set-up: dose 5 mg/kg, route intravenous; conditions: read-out: Drug uptake
# [4] = Volume of distribution in mouse at 5 mg/kg, iv and 10 mg/kg, po; assay type: ADME, organism-based; conditions: in vivo
# [5] = Drug level in mouse brain at 5 mg/kg, iv after 4 hrs; assay type: ADME, organism-based; set-up: dose 5 mg/kg, route intravenous; conditions: read-out: Drug uptake
# [6] = Cmax in mouse at 5 mg/kg, iv and 10 mg/kg, po; assay type: ADME, organism-based; conditions: in vivo
# [7] = Ratio of drug level in brain to plasma in mouse at 5 mg/kg, iv after 4 hrs; assay type: ADME, organism-based; set-up: dose 5 mg/kg, route intravenous
# [8] = AUC in mouse at 10 mg/kg, po; assay type: ADME, organism-based; set-up: dose 10 mg/kg, route oral; conditions: plasma
# [9] = Ratio of drug level in brain to plasma in mouse at 5 mg/kg, iv after 1 hr; assay type: ADME, organism-based; set-up: dose 5 mg/kg, route intravenous
# [10] = Oral bioavailability in mouse at 10 mg/kg; assay type: ADME, organism-based; conditions: in vivo
# [11] = Tmax in mouse at 5 mg/kg, iv and 10 mg/kg, po; assay type: ADME, organism-based; conditions: in vivo
logD [1],Papp [2] [×10⁻⁶ cm/s],concentration at 1 h [3] [ng/g],Vd [4] [L/kg],concentration at 4 h [5] [ng/g],Cmax [6] [ng/mL],Kp at 4 h [7],AUC [8] [ng·h/mL],Kp at 1 h [9],bioavailability [10] [%],Tmax [11] [min],SMILES
2.4,3,,,,,,,,,,Cc1ccc(N2CCN(C(=O)[C@H](C)Cc3ccc(Cl)cc3)CC2)c([C@@H](NC(=O)CCN)C(C)C)c1
2.5,3,,,,,,,,,,CNCCN[C@H](c1cc(C)ccc1N1CCN(C(=O)[C@H](C)Cc2ccc(Cl)cc2F)CC1)C(C)C
4,8,59,3,42,632,0.2,2290,0.1,30,120,CNCC(=O)N[C@H](c1cc(C)ccc1N1CCN(C(=O)[C@H](C)Cc2ccc(Cl)cc2F)CC1)C(C)C
4,16,,,,,,,,,,Cc1ccc(N2CCN(C(=O)[C@H](C)Cc3ccc(Cl)cc3C)CC2)c([C@@H](NC(=O)CCN(C)C)C(C)C)c1
2.7,12,,,,,,,,,,CNCCC(=O)N[C@H](c1cc(C)ccc1N1CCN(C(=O)[C@H](C)Cc2ccc(Cl)cc2)CC1)C(C)C
3.5,,334,11,102,55,1.3,208,1.3,8,30,CNCC(=O)N[C@H](c1cc(Cl)ccc1N1CCN(C(=O)[C@H](C)Cc2ccc(Cl)cc2OC)CC1)C(C)C
4.5,3,95,16,59,143,1,397,0.4,16,15,COc1cc(Cl)ccc1C[C@@H](C)C(=O)N1CCN(c2ccc(Cl)cc2[C@@H](NC(=O)[C@@H](C)N)C(C)C)CC1
4,9,580,11,176,109,2.3,600,1.9,19,60,CC(C)[C@H](NC(=O)CCN(C)C)c1cc(Cl)ccc1N1CCN(C(=O)[C@H](C)Cc2ccc(Cl)cc2)CC1
2.4,1,231,19,126,165,1.1,813,0.6,21,30,CNCC(=O)N[C@H](c1cccc(F)c1N1CCN(C(=O)[C@H](C)Cc2ccc(Cl)cc2)CC1)C(C)C
3.1,2,,29,107,114,1.7,374,0.5,12,30,CNCC(=O)N[C@H](c1cccc(F)c1N1CCN(C(=O)[C@H](C)Cc2ccc(Cl)cc2OC)CC1)C(C)C
2.6,0.4,53,52,62,166,1.2,1630,0.4,47,30,CNCCN[C@H](c1cccc(F)c1N1CCN(C(=O)[C@H](C)Cc2ccc(Cl)cc2)CC1)C(C)C
2.3,0.3,61,8.2,39,151,0.4,422,0.1,5.8,120,COc1cc(Cl)ccc1C[C@@H](C)C(=O)N1CCN(c2ccc(Cl)cc2[C@@H](NC(=O)C2CNC2)C(C)C)CC1
3,2,79,3,77,762,0.1,9160,0.1,58,360,CC(C)[C@H](NC(=O)C1CN(C)C1)c1cc(Cl)ccc1N1CCN(C(=O)[C@H](C)Cc2ccc(Cl)cc2)CC1
2.6,0.2,51,10,32,104,0.4,336,0.1,5.6,120,COc1cc(Cl)ccc1C[C@@H](C)C(=O)N1CCN(c2c(F)cccc2[C@@H](NC(=O)C2CNC2)C(C)C)CC1
4.3,2,85,13,71,172,0.5,1010,0.3,23,120,CNCC(=O)N[C@H](c1cccc(F)c1N1CCN(C(=O)[C@H](C)Cc2ccc(Cl)cc2Cl)CC1)C(C)C
4.3,,,16,62,88,1.5,232,0.7,13,30,CNCC(=O)N[C@H](c1cc(Cl)ccc1N1CCN(C(=O)[C@H](C)Cc2ccc(Cl)cc2)CC1)C(C)C
